According to ChEMBL document CHEMBL4340512, “Discovery of novel triazolo[4,3-b]pyridazin-3-yl-quinoline derivatives as PIM inhibitors” (Eur J Med Chem, 2019):

Experiments:
BXPC-3 = assay: Antiproliferative activity against human BxPC3 cells incubated for 72 hrs by CellTiter-Glo luminescence assay; type: functional; settings: BXPC-3, 72 h
A-375 = assay: Antiproliferative activity against human A375 cells incubated for 72 hrs by CellTiter-Glo luminescence assay; type: functional; settings: A-375, 72 h
COLO 205 = assay: Antiproliferative activity against human COLO205 cells incubated for 72 hrs by CellTiter-Glo luminescence assay; type: functional; settings: COLO 205, 72 h
[1] = target: Serine/threonine-protein kinase pim-3 (Homo sapiens, UniProt Q86V86); assay: Inhibition of N-terminal 6-His tagged human recombinant PIM3 using PIM tide (ARKRRRHPSGPPTA) as substrate incubated for 1 hr by fluorescence based assay
MDA-MB-231 = assay: Antiproliferative activity against human MDA-MB-231 assessed as combination index at 20 uM incubated for 72 hrs in presence of GI50 dose of Palbociclib by CellTiter-Glo luminescence assay; type: functional
Raji = assay: Antiproliferative activity against human Raji assessed as combination index at 20 uM incubated for 72 hrs in presence of GI50 dose of Palbociclib by CellTiter-Glo luminescence assay; type: functional

- GI50 (BXPC-3): 9.21 µM
- GI50 (A-375): 21.8 µM
- GI50 (COLO 205): 5.25 µM
- IC50 [1]: 0.07 µM
SMILES: COCCN1CCOc2c1cnn1c(-c3ccc4cccc(NCC5CCNCC5)c4n3)nnc21
- CI (MDA-MB-231): 0.047
- CI (Raji): 0.52
